molecular target: interaction between p53 and MDM2 proteins (recombinant GST-tagged MDM2 / p53 peptide) (Homo sapiens, UniProt Q00987); test: HTRF assay of inhibition of the p53-MDM2 interaction (GST-MDM2 / biotinylated p53 peptide); format: binding; conditions: 0.2% BSA, 37° C. 1 h
Description: The ability of the compounds to inhibit the interaction between p53 and MDM2 proteins was measured by an HTRF (homogeneous time-resolved fluorescence) assay in which recombinant GST-tagged MDM2 binds to a peptide that resembles the MDM2-interacting region of p53 (Lane et al.). Binding of GST-MDM2 protein and p53-peptide (biotinylated on its N-terminal end) is registered by the FRET (fluorescence resonance energy transfer) between Europium (Eu)-labeled anti-GST antibody and streptavidin-conjugated Allophycocyanin (APC).
Test is performed in black flat-bottom 384-well plates (Costar) in a total volume of […] containing:90 nM biotinylate peptide, 160 ng/ml GST-MDM2, 20 nM streptavidin-APC (PerkinElmerWallac), 2 nM Eu-labeled anti-GST-antibody (PerkinElmerWallac), 0.2% bovine serum albumin (BSA), 1 mM dithiothreitol (DTT) and 20 mM […] (TBS) buffer as follows: Add 10 uL of GST-MDM2 (640 ng/ml working solution) in reaction buffer to each well. Add 10 uL diluted compounds (1:5 dilution in reaction buffer) to each well, mix by shaking. Add 20 uL biotinylated p53 peptide (180 nM working solution) in reaction buffer to each well and mix on shaker. Incubate at 37° C. for 1 h. Add 20 uL streptavidin-APC and Eu-anti-GST antibody mixture (6 nM Eu-anti-GST and 60 nM streptavidin-APC working solution) in TBS buffer with 0.2% BSA, shake at room temperature for 30 minutes and read using a TRF-capable plate reader at 665 and 615 nm (Victor 5, Perkin ElmerWallac). If not specified, the reagents were purchased from Sigma Chemical Co.

Chain of interaction between p53 and MDM2 proteins (recombinant GST-tagged MDM2 / p53 peptide) (Q00987 whole entry): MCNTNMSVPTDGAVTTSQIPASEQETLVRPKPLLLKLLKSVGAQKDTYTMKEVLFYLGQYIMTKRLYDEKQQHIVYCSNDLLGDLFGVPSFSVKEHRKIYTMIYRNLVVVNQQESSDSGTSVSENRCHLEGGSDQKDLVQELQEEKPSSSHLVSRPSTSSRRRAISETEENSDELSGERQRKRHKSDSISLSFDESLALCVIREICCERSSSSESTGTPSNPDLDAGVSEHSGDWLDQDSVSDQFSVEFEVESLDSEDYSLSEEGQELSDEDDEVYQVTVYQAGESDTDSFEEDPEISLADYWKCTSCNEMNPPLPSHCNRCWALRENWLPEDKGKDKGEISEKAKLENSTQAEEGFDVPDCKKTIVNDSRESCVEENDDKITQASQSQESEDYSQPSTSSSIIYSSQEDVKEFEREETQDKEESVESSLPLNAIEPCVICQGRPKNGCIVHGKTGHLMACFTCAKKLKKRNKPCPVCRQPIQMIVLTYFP

SMILES	IC50
O=C1Nc2cc(Cl)ccc2[C@]12[C@@H](c1ccccc1C(F)(F)F)NCC[C@H]2c1cccc(Cl)c1 (racemic) [Example 11c]	6.95 µM
C=C(CC(C)C)[C@H]1n2cnnc2C[C@@H](c2cccc(Cl)c2)[C@]12C(=O)Nc1cc(Cl)ccc12 (racemic) [Example 44h]	1.03 µM
COc1cccc([C@H]2NCC[C@@H](c3cccc(Cl)c3)[C@]23C(=O)Nc2cc(Cl)ccc23)c1 (racemic) [Example 8c, racemic (2′R, 3R, 4′S)-6-chloro-4′-(3-chlorophenyl)-2′-(3-methoxyphenyl) spiro[3H-indole-3,3′-piperidine]-2(1H)-one]	5.21 µM
COc1ccc(F)cc1[C@H]1NCC[C@@H](c2cccc(Cl)c2)[C@]12C(=O)Nc1cc(Cl)ccc12 (racemic) [Example 16c, racemic (2′R, 3R, 4′S)-6-chloro-4′-(3-chlorophenyl)-2′-(5-fluoro-2-methoxyphenyl) spiro[3H-indole-3,3′-piperidine]-2(1H)-one]	2.31 µM

— patent publication US20080188506A1, “SPIROINDOLINONE DERIVATIVES” (priority 2007, published 2008)
